Several values for one entry are separate records, joined by “and”; a condition that tells them apart may be missing. Identical values can stand only once. Like-named read-outs stand apart in the source and are kept apart here.
Molecular target: Leishmania donovani Topoisomerase 1 (LdTop1) (Leishmania donovani, UniProt A0A3Q8IHS4+Q8WQM6)
Assay: Plasmid DNA relaxation assay, LdTop1 (simultaneous incubation)
Assay type: biochemical
Method: To investigate the inhibitory effect of our library compounds on the DNA relaxation activity of the recombinant Human and Leishmania topoisomerase 1 (Table 2), assays were performed involving supercoiled plasmid DNA, the enzymes (HTop1 and LdTop1) and our molecules. The enzymes were purified by the standard literature procedure.
All the experiments were conducted thrice and representative data from once set of them are expressed as mean ± SD.
The type I DNA topoisomerase are assayed by decreased mobility of the relaxed isomers of supercoiled pBS (SK^+) [pBlue-script (SK^+)] DNA in agarose gel. The relaxation assay was carried out as described previously with LdTop1B and HTop I, diluted in the relaxation buffer (25 mM Tris–HCl, pH 7.5, 5% glycerol, 0.5 mM DTT, 10 mM MgCl2, 50 mM KCl, […] and […] BSA) and supercoiled plasmid pBS (SK^+) DNA (85–95% were negatively supercoiled, with remainder being nicked circles)[9][28][29]. The reconstituted enzyme LdTop1B was assayed at 50 mM KCl concentration as described before. For all kinetic studies, the reaction mixtures containing the buffer and DNA were heated to 37 °C before addition of the enzymes. The reactions were rapidly quenched using stop solution and kept on ice. The gels were stained with ethidium bromide (EtBr) ([…]) and the amount of supercoiled monomer DNA band fluorescence were quantified by integration using Gel Doc 2000 under UV illumination (Bio-Rad Quantity One Software), as described previously.
Cells harvested from 1 litre of culture were separately lysed by lysozyme/sonication, and the proteins were purified through Ni-NTA (Ni^2+-nitriloacetate-agarose column (Qiagen, Hilden, Germany) followed by a phospho-cellulose column (P11 cellulose; Whatman, Maidstone Kent, UK) as described previously. Finally, the purified proteins LdTOP1L and LdTOP1S were stored at −70 °C. The concentrations of each protein were quantified by using Bradford Reagent (PIERCE, Thermo Fisher Scientific Inc., Rockford, USA). Purified LdTOP1L was mixed with purified LdTOP1S at a molar ratio of 1:1 to a total protein concentration of 0.5 mg/ml in reconstitution buffer [50 mM potassium phosphate, pH 7.5, 0.5 mM DTT, 1 mM EDTA, 0.1 mM PMSF and 10% (v/v) glycerol]. The mixture was dialyzed overnight at 4 °C and dialyzed fractions were used for plasmid relaxation activity.

Sequence of Leishmania donovani Topoisomerase 1 (LdTop1) (Q8WQM6 entry or part of it): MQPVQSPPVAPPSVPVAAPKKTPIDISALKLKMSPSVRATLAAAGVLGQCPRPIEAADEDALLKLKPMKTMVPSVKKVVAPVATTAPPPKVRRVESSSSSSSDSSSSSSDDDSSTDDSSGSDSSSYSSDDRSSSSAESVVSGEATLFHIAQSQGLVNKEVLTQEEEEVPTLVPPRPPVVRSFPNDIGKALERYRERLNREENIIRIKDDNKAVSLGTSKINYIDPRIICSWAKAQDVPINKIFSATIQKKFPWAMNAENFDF
Sequence of Leishmania donovani Topoisomerase 1 (LdTop1) (A0A3Q8IHS4 entry or part of it): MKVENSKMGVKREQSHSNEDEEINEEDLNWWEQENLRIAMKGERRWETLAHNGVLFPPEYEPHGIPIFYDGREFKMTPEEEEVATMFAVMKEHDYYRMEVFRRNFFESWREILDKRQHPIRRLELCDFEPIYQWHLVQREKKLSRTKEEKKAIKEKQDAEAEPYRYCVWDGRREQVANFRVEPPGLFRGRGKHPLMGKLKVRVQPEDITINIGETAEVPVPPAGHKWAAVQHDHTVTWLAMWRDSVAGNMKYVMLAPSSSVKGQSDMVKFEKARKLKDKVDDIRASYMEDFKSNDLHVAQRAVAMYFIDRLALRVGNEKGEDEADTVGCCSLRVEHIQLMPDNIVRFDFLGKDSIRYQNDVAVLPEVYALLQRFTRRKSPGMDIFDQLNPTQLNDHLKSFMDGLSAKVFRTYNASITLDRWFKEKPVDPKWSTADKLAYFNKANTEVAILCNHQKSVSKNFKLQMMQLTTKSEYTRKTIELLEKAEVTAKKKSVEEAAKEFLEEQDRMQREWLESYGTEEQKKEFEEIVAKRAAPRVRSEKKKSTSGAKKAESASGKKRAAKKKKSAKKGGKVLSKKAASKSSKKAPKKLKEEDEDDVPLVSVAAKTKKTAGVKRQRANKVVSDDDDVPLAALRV

Cc1cc2c(c(=O)[nH]1)C(=O)O/C2=C\c1ccc(O)c(O)c1 [Compound 4]
inhibition at 12.5 µM (LdTop1 relaxation, 12.5 uM, read-out: % inhibition, mean data): 97.2%
inhibition at 25 µM (LdTop1 relaxation, 25 uM, read-out: % inhibition, mean data): 99.9%
% inhibition (CPT 100%), data 2 (LdTop1 relaxation, 50 uM): 100.001%
inhibition at 50 µM (LdTop1 relaxation, 50 uM, read-out: % inhibition, mean data): 100%
% inhibition (CPT 100%), data 2 (LdTop1 relaxation, 100 uM): 100.003%
inhibition at 100 µM (LdTop1 relaxation, 100 uM, read-out: % inhibition, mean data): 100%
EC50 (incubated simultaneously with LdTop1 and supercoiled DNA, read-out: EC50, simultaneous assay): 3.77 ± 0.27 µM
LdTop1 inhibitory activity (plasmid DNA relaxation): considerable activity
EC50 (plasmid DNA relaxation, averages of three experiments, read-out: LDTop1 inhibition (EC50)): 4 µM and 3.51 µM
inhibition at 12.5 µM (read-out: % inhibition (CPT 100%), data 1, LdTop1 relaxation, 12.5 uM): 97.3%
inhibition at 25 µM (read-out: % inhibition (CPT 100%), data 1, LdTop1 relaxation, 25 uM): 99.9%
inhibition at 50 µM (read-out: % inhibition (CPT 100%), data 1, LdTop1 relaxation, 50 uM): 100%
inhibition at 100 µM (read-out: % inhibition (CPT 100%), data 1, LdTop1 relaxation, 100 uM): 100%
inhibition at 0.62 µM (read-out: % inhibition (CPT 100%), data 1, simultaneous, 0.62 uM): 7.36%
inhibition at 1.25 µM (read-out: % inhibition (CPT 100%), data 1, simultaneous, 1.25 uM): 23.5%
inhibition at 2.5 µM (read-out: % inhibition (CPT 100%), data 1, simultaneous, 2.5 uM): 42.8%
inhibition at 5 µM (read-out: % inhibition (CPT 100%), data 1, simultaneous, 5 uM): 60.1%
inhibition at 10 µM (read-out: % inhibition (CPT 100%), data 1, simultaneous, 10 uM): 88.3%
inhibition at 20 µM (read-out: % inhibition (CPT 100%), data 1, simultaneous, 20 uM): 91.6%
inhibition at 12.5 µM (read-out: % inhibition (CPT 100%), data 2, LdTop1 relaxation, 12.5 uM): 97.1%
inhibition at 25 µM (read-out: % inhibition (CPT 100%), data 2, LdTop1 relaxation, 25 uM): 99.9%
inhibition at 50 µM (read-out: % inhibition (CPT 100%), data 2, LdTop1 relaxation, 50 uM): 100%
inhibition at 100 µM (read-out: % inhibition (CPT 100%), data 2, LdTop1 relaxation, 100 uM): 100%
inhibition at 0.62 µM (read-out: % inhibition (CPT 100%), data 2, simultaneous, 0.62 uM): 8.88%
inhibition at 1.25 µM (read-out: % inhibition (CPT 100%), data 2, simultaneous, 1.25 uM): 22.5%
inhibition at 2.5 µM (read-out: % inhibition (CPT 100%), data 2, simultaneous, 2.5 uM): 43.7%
inhibition at 5 µM (read-out: % inhibition (CPT 100%), data 2, simultaneous, 5 uM): 60.9%
inhibition at 10 µM (read-out: % inhibition (CPT 100%), data 2, simultaneous, 10 uM): 86.5%
inhibition at 20 µM (read-out: % inhibition (CPT 100%), data 2, simultaneous, 20 uM): 92.9%
inhibition at 0.62 µM (simultaneous, 0.62 uM, read-out: % inhibition, mean data): 8.12%
inhibition at 1.25 µM (simultaneous, 1.25 uM, read-out: % inhibition, mean data): 23%
inhibition at 2.5 µM (simultaneous, 2.5 uM, read-out: % inhibition, mean data): 43.3%
inhibition at 5 µM (simultaneous, 5 uM, read-out: % inhibition, mean data): 60.5%
inhibition at 10 µM (simultaneous, 10 uM, read-out: % inhibition, mean data): 87.4%
% inhibition, mean data (simultaneous, 20 uM): 92.2648%
inhibition at 20 µM (simultaneous, 20 uM, read-out: % inhibition, mean data): ~92%
EC50 (supplement sheet, simultaneous, concentrations in uM, read-out: EC50 of 4-Sim): 3.77 µM

Reference: paper PMC4879574, “Identification of Leishmania donovani Topoisomerase 1 inhibitors via intuitive scaffold hopping and bioisosteric modification of known Top 1 inhibitors” (Scientific Reports, 2016)
